From patent US20120122860A1, “SOLID FORMS OF SULFONAMIDES AND AMINO ACIDS” (Plexxikon, Inc., priority 2009, published 2012)

Key:
[1] = biological target: Kdr (Homo sapiens, UniProt P35968); assay: Kinase activity assay, Kdr
[2] = biological target: B-Raf V600E (Homo sapiens, UniProt P15056, V600E); assay: Kinase activity assay, B-Raf V600E; format: biochemical; conditions: read-out: activity toward kinase B-Raf V600E, IC50
[3] = biological target: C-Raf (Homo sapiens, UniProt P04049); assay: Kinase activity assay, C-Raf
[4] = biological target: Src (Homo sapiens, UniProt P12931); assay: Kinase activity assay, Src
[5] = biological target: Fms (Homo sapiens, UniProt P07333); assay: Kinase activity assay, Fms
[6] = biological target: B-Raf (Homo sapiens, UniProt P15056); assay: Kinase activity assay, B-Raf; format: biochemical; conditions: read-out: activity toward kinase B-Raf, IC50
[7] = biological target: Btk (Homo sapiens, UniProt Q06187); assay: Kinase activity assay, Btk
[8] = biological target: Kit (Homo sapiens, UniProt P10721); assay: Kinase activity assay, Kit
[9] = biological target: MAP4K4 (Homo sapiens, UniProt O95819); assay: Kinase activity assay, MAP4K4

Measured: IC50

Chain of Kit (P10721 26-976): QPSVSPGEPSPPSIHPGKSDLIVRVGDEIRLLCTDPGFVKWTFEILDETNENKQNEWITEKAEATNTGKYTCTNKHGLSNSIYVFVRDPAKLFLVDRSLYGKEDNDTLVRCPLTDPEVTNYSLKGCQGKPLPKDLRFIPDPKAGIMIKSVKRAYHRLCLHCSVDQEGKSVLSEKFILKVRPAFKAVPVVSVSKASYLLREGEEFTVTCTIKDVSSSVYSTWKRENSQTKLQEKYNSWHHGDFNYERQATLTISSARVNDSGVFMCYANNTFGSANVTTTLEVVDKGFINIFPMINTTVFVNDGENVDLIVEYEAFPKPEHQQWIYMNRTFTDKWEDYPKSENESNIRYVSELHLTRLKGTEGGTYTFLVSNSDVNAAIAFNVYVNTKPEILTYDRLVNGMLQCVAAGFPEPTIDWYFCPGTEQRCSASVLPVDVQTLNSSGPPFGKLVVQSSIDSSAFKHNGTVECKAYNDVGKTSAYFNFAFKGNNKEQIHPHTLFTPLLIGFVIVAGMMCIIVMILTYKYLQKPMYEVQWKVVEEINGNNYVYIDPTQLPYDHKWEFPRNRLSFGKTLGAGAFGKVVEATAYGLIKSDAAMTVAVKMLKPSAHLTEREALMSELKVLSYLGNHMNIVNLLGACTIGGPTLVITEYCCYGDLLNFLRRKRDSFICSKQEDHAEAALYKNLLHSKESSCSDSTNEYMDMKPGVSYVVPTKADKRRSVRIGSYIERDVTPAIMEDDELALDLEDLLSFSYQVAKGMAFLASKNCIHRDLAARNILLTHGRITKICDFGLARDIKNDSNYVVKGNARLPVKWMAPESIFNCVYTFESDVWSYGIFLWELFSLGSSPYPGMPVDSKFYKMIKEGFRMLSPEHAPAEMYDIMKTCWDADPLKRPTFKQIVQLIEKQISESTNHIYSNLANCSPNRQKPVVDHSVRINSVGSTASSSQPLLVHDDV
Chain of B-Raf (P15056 whole entry): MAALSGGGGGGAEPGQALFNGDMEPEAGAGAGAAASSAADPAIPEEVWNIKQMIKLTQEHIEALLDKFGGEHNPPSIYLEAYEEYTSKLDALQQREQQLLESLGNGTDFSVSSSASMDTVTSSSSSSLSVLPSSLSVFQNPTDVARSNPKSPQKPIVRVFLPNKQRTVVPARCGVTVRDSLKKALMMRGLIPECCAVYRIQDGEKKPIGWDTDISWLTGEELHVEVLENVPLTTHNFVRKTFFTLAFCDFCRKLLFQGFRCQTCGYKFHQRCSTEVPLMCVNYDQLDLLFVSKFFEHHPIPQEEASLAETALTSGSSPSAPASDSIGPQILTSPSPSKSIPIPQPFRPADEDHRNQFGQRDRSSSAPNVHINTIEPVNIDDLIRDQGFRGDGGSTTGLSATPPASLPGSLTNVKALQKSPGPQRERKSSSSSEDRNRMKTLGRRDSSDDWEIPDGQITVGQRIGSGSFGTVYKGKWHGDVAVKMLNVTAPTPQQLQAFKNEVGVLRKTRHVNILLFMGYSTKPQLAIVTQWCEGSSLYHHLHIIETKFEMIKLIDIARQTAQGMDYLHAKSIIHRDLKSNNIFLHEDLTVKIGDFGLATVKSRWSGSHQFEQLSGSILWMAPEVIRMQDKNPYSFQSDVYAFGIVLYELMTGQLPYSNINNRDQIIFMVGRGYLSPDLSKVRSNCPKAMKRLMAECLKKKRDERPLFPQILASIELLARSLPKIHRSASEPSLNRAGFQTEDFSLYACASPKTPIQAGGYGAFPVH
Chain of C-Raf (P04049 whole entry): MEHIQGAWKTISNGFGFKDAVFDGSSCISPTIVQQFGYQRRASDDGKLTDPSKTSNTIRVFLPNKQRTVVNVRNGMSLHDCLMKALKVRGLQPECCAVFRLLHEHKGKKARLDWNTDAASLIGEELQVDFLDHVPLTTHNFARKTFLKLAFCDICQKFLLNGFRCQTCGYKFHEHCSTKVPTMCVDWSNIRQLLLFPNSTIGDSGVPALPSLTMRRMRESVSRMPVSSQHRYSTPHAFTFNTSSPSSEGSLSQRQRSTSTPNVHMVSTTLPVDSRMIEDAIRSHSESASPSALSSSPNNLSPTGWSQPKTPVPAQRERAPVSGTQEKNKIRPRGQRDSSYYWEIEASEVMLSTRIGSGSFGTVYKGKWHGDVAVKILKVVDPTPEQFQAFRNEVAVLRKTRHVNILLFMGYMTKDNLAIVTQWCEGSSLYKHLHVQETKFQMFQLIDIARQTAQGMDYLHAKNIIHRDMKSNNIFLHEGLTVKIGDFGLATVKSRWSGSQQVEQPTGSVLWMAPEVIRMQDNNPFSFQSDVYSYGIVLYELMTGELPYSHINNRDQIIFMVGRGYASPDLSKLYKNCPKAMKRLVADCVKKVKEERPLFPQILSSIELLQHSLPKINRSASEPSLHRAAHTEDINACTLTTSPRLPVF
Chain of Btk (Q06187 whole entry): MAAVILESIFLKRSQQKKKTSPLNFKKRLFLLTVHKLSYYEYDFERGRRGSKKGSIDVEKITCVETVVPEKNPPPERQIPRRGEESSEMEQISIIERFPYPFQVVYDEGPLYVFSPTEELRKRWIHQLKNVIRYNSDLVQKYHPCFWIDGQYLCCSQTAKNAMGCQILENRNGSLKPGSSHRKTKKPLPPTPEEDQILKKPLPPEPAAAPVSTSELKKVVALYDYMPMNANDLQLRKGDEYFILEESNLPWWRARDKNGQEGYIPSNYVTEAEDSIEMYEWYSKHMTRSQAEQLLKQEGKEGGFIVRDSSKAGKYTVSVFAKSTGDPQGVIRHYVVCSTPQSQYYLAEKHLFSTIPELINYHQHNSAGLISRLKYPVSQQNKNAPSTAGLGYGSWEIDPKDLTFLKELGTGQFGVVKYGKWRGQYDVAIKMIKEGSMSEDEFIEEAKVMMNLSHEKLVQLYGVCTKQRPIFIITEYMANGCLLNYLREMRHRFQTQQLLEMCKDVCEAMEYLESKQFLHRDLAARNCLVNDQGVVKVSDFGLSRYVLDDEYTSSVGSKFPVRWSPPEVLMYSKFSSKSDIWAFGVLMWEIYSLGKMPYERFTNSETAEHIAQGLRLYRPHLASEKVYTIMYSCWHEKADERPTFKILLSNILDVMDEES
Chain of Src (P12931 whole entry): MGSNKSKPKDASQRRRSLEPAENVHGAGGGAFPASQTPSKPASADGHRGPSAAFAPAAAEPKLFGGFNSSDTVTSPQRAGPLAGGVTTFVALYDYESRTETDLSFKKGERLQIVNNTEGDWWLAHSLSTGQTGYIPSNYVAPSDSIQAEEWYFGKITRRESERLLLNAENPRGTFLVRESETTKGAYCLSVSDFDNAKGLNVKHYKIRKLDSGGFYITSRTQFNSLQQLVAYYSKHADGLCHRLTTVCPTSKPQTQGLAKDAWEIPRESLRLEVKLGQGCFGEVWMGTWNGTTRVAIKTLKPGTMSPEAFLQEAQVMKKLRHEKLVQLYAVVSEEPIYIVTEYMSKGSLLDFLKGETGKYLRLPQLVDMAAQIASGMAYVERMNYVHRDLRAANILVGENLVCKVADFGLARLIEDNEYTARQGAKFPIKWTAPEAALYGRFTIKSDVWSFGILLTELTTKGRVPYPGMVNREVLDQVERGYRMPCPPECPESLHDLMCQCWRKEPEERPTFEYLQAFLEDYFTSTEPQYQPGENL
Chain of B-Raf V600E (P15056 whole entry V600E): as the sequence (P15056 whole entry) above, with V600E counted along it
Chain of MAP4K4 (O95819 whole entry): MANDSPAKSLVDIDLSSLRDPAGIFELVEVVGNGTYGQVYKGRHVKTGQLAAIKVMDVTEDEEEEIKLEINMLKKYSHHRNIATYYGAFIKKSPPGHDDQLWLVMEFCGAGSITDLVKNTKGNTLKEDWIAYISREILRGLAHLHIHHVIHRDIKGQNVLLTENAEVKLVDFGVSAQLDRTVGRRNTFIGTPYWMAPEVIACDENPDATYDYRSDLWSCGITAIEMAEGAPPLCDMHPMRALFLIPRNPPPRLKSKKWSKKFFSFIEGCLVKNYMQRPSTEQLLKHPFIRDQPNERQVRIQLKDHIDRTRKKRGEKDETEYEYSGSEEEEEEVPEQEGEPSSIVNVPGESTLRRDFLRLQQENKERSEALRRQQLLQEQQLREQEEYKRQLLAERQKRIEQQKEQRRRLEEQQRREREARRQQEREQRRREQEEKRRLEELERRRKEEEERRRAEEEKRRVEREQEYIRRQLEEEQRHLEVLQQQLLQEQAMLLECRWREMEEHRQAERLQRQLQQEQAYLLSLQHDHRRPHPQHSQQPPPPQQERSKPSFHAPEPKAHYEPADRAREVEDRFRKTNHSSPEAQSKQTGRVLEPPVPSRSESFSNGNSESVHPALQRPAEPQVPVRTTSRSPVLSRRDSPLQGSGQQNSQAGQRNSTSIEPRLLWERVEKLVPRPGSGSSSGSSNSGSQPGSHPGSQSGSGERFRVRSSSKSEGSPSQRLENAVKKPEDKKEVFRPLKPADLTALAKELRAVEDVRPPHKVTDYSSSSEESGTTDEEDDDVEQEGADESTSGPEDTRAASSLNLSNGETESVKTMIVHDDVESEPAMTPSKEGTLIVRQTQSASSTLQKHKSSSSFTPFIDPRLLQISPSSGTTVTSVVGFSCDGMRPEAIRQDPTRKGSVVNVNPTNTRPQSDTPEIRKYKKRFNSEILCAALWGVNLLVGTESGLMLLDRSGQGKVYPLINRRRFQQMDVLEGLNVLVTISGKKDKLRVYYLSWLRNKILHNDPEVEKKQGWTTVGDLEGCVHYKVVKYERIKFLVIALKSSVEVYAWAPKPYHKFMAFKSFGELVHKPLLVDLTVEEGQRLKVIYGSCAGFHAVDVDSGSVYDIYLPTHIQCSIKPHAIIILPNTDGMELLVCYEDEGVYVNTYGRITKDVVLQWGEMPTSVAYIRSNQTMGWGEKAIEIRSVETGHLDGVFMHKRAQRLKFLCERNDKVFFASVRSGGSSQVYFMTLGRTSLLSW

Cn1cc(-c2cnc3[nH]cc(C(=O)c4cc(NS(=O)(=O)c5cccc(C(F)(F)F)c5)ccc4F)c3c2)cn1 [P-2101, N-{4-Fluoro-3-[5-(1-methyl-1H-pyrazol-4-yl)-1H-pyrrolo[2,3-b]pyridine-3-carbonyl]-phenyl}-3-trifluoromethyl-benzenesulfonamide]
not listed: [9]
≤ 10 µM: all other assays above

Cn1cc(-c2cnc3[nH]cc(C(=O)c4cc(NS(=O)(=O)C5CC5)ccc4F)c3c2)cn1 [P-2433, Cyclopropanesulfonic acid {4-fluoro-3-[5-(1-methyl-1H-pyrazol-4-yl)-1H-pyrrolo[2,3-b]pyridine-3-carbonyl]-phenyl}-amide]
not listed: [3] | [6] | [9]
≤ 10 µM: all other assays above

CCCS(=O)(=O)Nc1ccc(F)c(C(=O)c2c[nH]c3ncc(-c4cnn(C)c4)cc23)c1Cl [P-2429, Propane-1-sulfonic acid {2-chloro-4-fluoro-3-[5-(1-methyl-1H-pyrazol-4-yl)-1H-pyrrolo[2,3-b]pyridine-3-carbonyl]-phenyl}-amide]
≤ 10 µM: [2] | [4] | [5] | [7]

CCCS(=O)(=O)Nc1ccc(F)c(C(=O)c2c[nH]c3ncc(-c4cnn(Cc5ccccc5)c4)cc23)c1F [P-2190, Propane-1-sulfonic acid {3-[5-(1-benzyl-1H-pyrazol-4-yl)-1H-pyrrolo[2,3-b]pyridine-3-carbonyl]-2,4-difluoro-phenyl}-amide]
not listed: [3] | [9]
≤ 10 µM: all other assays above

CCCS(=O)(=O)Nc1ccc(F)c(C(=O)c2c[nH]c3ncc(-c4cnn(C)c4)cc23)c1 [P-2431, Propane-1-sulfonic acid {4-fluoro-3-[5-(1-methyl-1H-pyrazol-4-yl)-1H-pyrrolo[2,3-b]pyridine-3-carbonyl]-phenyl}-amide]
not listed: [9]
≤ 10 µM: all other assays above

CCCS(=O)(=O)Nc1ccc(F)c(C(=O)c2c[nH]c3ncc(-c4ccc(N(C)C)nc4)cc23)c1F [P-2229, Propane-1-sulfonic acid {3-[5-(6-dimethylamino-pyridin-3-yl)-1H-pyrrolo[2,3-b]pyridine-3-carbonyl]-2,4-difluoro-phenyl}-amide]
not listed: [5]
≤ 10 µM: all other assays above

CCCS(=O)(=O)Nc1ccc(F)c(C(=O)c2c[nH]c3ncc(-c4c(C)nn(C)c4C)cc23)c1F [P-2158, Propane-1-sulfonic acid {2,4-difluoro-3-[5-(1,3,5-trimethyl-1H-pyrazol-4-yl)-1H-pyrrolo[2,3-b]pyridine-3-carbonyl]-phenyl}-amide]
not listed: [3] | [6] | [9]
≤ 10 µM: all other assays above

O=C(c1cccc(NS(=O)(=O)C2CCCCC2)c1)c1c[nH]c2ncc(F)cc12 [P-2462, Cyclohexanesulfonic acid [3-(5-fluoro-1H-pyrrolo[2,3-b]pyridine-3-carbonyl)-phenyl]-amide]
≤ 10 µM: [9] | [7]

CCCS(=O)(=O)Nc1ccc(F)c(C(=O)c2c[nH]c3ncc(-c4ccc(F)c(OC)c4)cc23)c1F [P-2159, Propane-1-sulfonic acid {2,4-difluoro-3-[5-(4-fluoro-3-methoxy-phenyl)-1H-pyrrolo[2,3-b]pyridine-3-carbonyl]-phenyl}-amide]
not listed: [3] | [6] | [9]
≤ 10 µM: all other assays above

CCS(=O)(=O)Nc1ccc(F)c(C(=O)c2c[nH]c3ncc(-c4ccc(F)cc4)cc23)c1F [P-2270, Ethanesulfonic acid {2,4-difluoro-3-[5-(4-fluoro-phenyl)-1H-pyrrolo[2,3-b]pyridine-3-carbonyl]-phenyl}-amide]
not listed: [3]
≤ 10 µM: all other assays above

CCCS(=O)(=O)Nc1cccc(C(=O)c2c[nH]c3ncc(Cl)cc23)c1 [P-2449, Propane-1-sulfonic acid [3-(5-chloro-1H-pyrrolo[2,3-b]pyridine-3-carbonyl)-phenyl]-amide]
≤ 10 µM: [1] | [2] | [5] | [7] | [8]

O=C(c1c(F)ccc(NS(=O)(=O)C2CC2)c1F)c1c[nH]c2ncc(-c3ccc(Cl)cc3)cc12 [P-2350, Cyclopropanesulfonic acid {3-[5-(4-chloro-phenyl)-1H-pyrrolo[2,3-b]pyridine-3-carbonyl]-2,4-difluoro-phenyl}-amide]
not listed: [2] | [6] | [9]
≤ 10 µM: all other assays above

Cn1cc(-c2cnc3[nH]cc(C(=O)c4cc(NS(=O)(=O)c5cccc(Cl)c5)ccc4F)c3c2)cn1 [P-2103, 3-Chloro-N-{4-fluoro-3-[5-(1-methyl-1H-pyrazol-4-yl)-1H-pyrrolo[2,3-b]pyridine-3-carbonyl]-phenyl}-benzenesulfonamide]
not listed: [3] | [9]
≤ 10 µM: all other assays above

O=C(c1c(F)ccc(NS(=O)(=O)C2CC2)c1F)c1c[nH]c2ncc(-c3ccc(F)cc3)cc12 [P-2351, Cyclopropanesulfonic acid {2,4-difluoro-3-[5-(4-fluoro-phenyl)-1H-pyrrolo[2,3-b]pyridine-3-carbonyl]-phenyl}-amide]
not listed: [3] | [9]
≤ 10 µM: all other assays above

CCCS(=O)(=O)Nc1ccc(F)c(C(=O)c2c[nH]c3ncc(-c4ccc(OCCCN(C)C)nc4)cc23)c1F [P-2178, Propane-1-sulfonic acid (3-{5-[6-(3-dimethylamino-propoxy)-pyridin-3-yl]-1H-pyrrolo[2,3-b]pyridine-3-carbonyl}-2,4-difluoro-phenyl)-amide]
not listed: [9]
≤ 10 µM: all other assays above

CCCS(=O)(=O)Nc1ccc(F)c(C(=O)c2c[nH]c3ncc(-c4ccc(S(N)(=O)=O)cc4)cc23)c1F [P-2194, 4-{3-[2,6-Difluoro-3-(propane-1-sulfonylamino)-benzoyl]-1H-pyrrolo[2,3-b]pyridin-5-yl}-benzenesulfonamide]
not listed: [3] | [9]
≤ 10 µM: all other assays above

Cn1cc(-c2cnc3[nH]cc(C(=O)c4cccc(NS(=O)(=O)C5CC5)c4)c3c2)cn1 [P-2456, Cyclopropanesulfonic acid {3-[5-(1-methyl-1H-pyrazol-4-yl)-1H-pyrrolo[2,3-b]pyridine-3-carbonyl]-phenyl}-amide]
≤ 10 µM: [1] | [2] | [5] | [7] | [8]

Cn1cc(-c2cnc3[nH]cc(C(=O)c4cc(NS(=O)(=O)c5cccc(OC(F)(F)F)c5)ccc4F)c3c2)cn1 [P-2102, N-{4-Fluoro-3-[5-(1-methyl-1H-pyrazol-4-yl)-1H-pyrrolo[2,3-b]pyridine-3-carbonyl]-phenyl}-3-trifluoromethoxy-benzenesulfonamide]
not listed: [3] | [9]
≤ 10 µM: all other assays above

CCCS(=O)(=O)Nc1ccc(F)c(C(=O)c2c[nH]c3ncc(-c4cnn(CC(C)C)c4)cc23)c1F [P-2157, Propane-1-sulfonic acid {2,4-difluoro-3-[5-(1-isobutyl-1H-pyrazol-4-yl)-1H-pyrrolo[2,3-b]pyridine-3-carbonyl]-phenyl}-amide]
not listed: [3] | [6] | [9]
≤ 10 µM: all other assays above

CCCS(=O)(=O)Nc1ccc(F)c(C(=O)c2c[nH]c3ncc(-c4ccc(OC)nc4OC)cc23)c1F [P-2184, Propane-1-sulfonic acid {3-[5-(2,6-dimethoxy-pyridin-3-yl)-1H-pyrrolo[2,3-b]pyridine-3-carbonyl]-2,4-difluoro-phenyl}-amide]
not listed: [3] | [9]
≤ 10 µM: all other assays above
